# Data from US20260133203A1, “DETECTION OF FUMARATE-DERIVED MODIFICATION IN A TEST SAMPLE” (UNIVERSITY OF SOUTH CAROLINA, priority 2017, published 2026).
# Structures can show the parent of a compound that is named as a salt.
# System: neurons and astrocytes
# Assay: LC-MS/MS identification of succinated proteins, neurons and astrocytes overall
# Assay type: cell-based
# Conditions: both neurons and astrocytes
# Method: For the identification of succination sites, 60 μg of protein from primary neurons, 200 μg of protein from primary astrocytes or 120 μg of protein from differentiated N1E-115 neurons were resolved by SDS-PAGE, and the gels were stained with Coomassie Brilliant Blue. After de-staining, all protein bands were excised from the gels and subjected to in-gel digestion with trypsin. Briefly, proteins were reduced with 10 mM dithiothreitol and alkylated with 170 mM 4-vinylpyridine. Trypsin digestion was carried out overnight at 37° C. in the presence of 1.5 ng sequence grade modified trypsin (Promega®, Madison, WI) in 50 mM ammonium bicarbonate. After gel extraction, the peptides were re-suspended in 1% acetic acid and analyzed on a DionexTM […] system (Thermo ScientificTM, Rockford, IL) coupled to an Orbitrap Velos ProTM mass spectrometer (Thermo ScientificTM, Rockford, IL). The LC solvents were 2% acetonitrile/0.1% formic acid (Solvent A) and 80% acetonitrile/0.1% formic acid (Solvent B). […] The data-dependent acquisition (DDA) data were analyzed using Proteome DiscovererTM 1.4 software with SEQUEST search engine against the uniprot_ref_mouse database (2014-10-03 version, 52,474 proteins) or uniprot_ref_rat database (2011-5-11 version, 39765 proteins) with Xcorr>1 validation (+2) and an allowance for 2 missed cleavages. […]
compound,measurement,value
"COC(=O)/C=C/C(=O)OC [DMF, dimethyl fumarate]",number of distinct protein subunits directly modified by either DMF or MMF,24
